Assay results taken from patent publication US12077503B2, “Substituted cyclic amides and their use as herbicides” (FMC CORPORATION, priority 2015, dated 2024).
Where two headings read alike, the source gives them in different places.

Assays:
Assay type in all cases: in vivo
[1] = system: barnyardgrass (Echinochloa crus-galli); experiment: Test B flooded paddy test; conditions: Echinochloa crus-galli, Flood, 250 g ai/ha, read-out: Barnyardgrass plant response rating
Procedure, shortened: (§1)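 Compound goes directly into floodwater once pots are flooded 3 cm above soil, targeting plants at two leaves; the water depth is then held for the test duration. Plants sit 13–15 d in a greenhouse and are rated visually, 100 denoting complete control.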

[2] = system: sedge, umbrella (small-flower umbrella sedge, Cyperus difformis); experiment: Test B flooded paddy test; conditions: Cyperus difformis, Flood, 250 g ai/ha
Procedure, shortened: as §1

[3] = system: ducksalad (Heteranthera limosa); experiment: Test B flooded paddy test; conditions: Heteranthera limosa, Flood, 250 g ai/ha, read-out: Ducksalad plant response rating
Procedure, shortened: as §1

rice (Oryra sativa) = experiment: Test B flooded paddy test; conditions: Oryza sativa, Flood, 250 g ai/ha, read-out: Rice plant response rating
Procedure, shortened: as §1

[4] = system: ryegrass, Italian (Italian ryegrass, Lolium multiflorum); experiment: Test A postemergence; conditions: Lolium multiflorum, post-emergence, 240 h; for pest or weed control at 125 g/ha: 125 g ai/ha; for pest or weed control at 31 g/ha: 31 g ai/ha, visual injury after approx. 10 d, 0 no effect, 100 complete control; for pest or weed control at 500 g/ha: 500 g ai/ha
Procedure, shortened: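 Visual injury, scored on a 0–100 scale relative to untreated controls, was recorded about 10 d after application. Treatments were a preemergence soil spray over planted seeds or a postemergence spray on plants at the one- to two-leaf stage, 2 to 10 cm tall, all in loam soil–sand blend in the greenhouse.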

[5] = scale of 0 to 100 where 0 is no effect and 100 is complete control
[6] = scale of 0 to 100 where 0 is no effect and 100 is complete control, read-out: Sedge, Umbrella plant response rating
[7] = postemergence, visual injury rating after approximately 10 d, read-out: Ryegrass, Italian plant response rating (0 to 100 scale, 0 no effect, 100 complete control)
[8] = Postemergence, 0 to 100 scale, read-out: Plant response rating, Ryegrass, Italian
[9] = postemergence, visual injury after approximately 10 d, 0 to 100 scale (0 no effect, 100 complete control), read-out: Plant response rating, Ryegrass, Italian
[10] = 0 to 100 scale where 0 is no effect and 100 is complete control
[11] = 0 to 100 scale where 0 is no effect and 100 is complete control, read-out: Sedge, Umbrella plant response rating
[12] = postemergence, visual injury vs untreated controls after approx. 10 d, 0 = no effect, 100 = complete control, read-out: Ryegrass, Italian plant response rating (0 to 100 scale)
[13] = postemergence, 0 to 100 scale, 0 is no effect, 100 is complete control, read-out: Ryegrass, Italian plant response rating
[14] = Postemergence, visual injury, 0 to 100 scale (0 no effect, 100 complete control), approx. 10 d, read-out: Plant response rating, Ryegrass, Italian

SMILES | pest or weed control at 250 g/ha [1, 5] | pest or weed control at 250 g/ha [2, 6] | pest or weed control at 250 g/ha [3, 5] | pest or weed control at 250 g/ha (rice (Oryra sativa); [5]) | pest or weed control at 125 g/ha [4, 7] | pest or weed control at 31 g/ha [4, 8] | pest or weed control at 125 g/ha [4, 9] | pest or weed control at 250 g/ha [1, 10] | pest or weed control at 250 g/ha [2, 11] | pest or weed control at 250 g/ha [3, 10] | pest or weed control at 250 g/ha (rice (Oryra sativa); [10]) | pest or weed control at 125 g/ha [4, 12] | pest or weed control at 500 g/ha [4, 13] | pest or weed control at 250 g/ha ([2]; 360 h, visually evaluated after 13 to 15 d, read-out: Plant response rating, Sedge, Umbrella (0 to 100 scale where 0 is no effect and 100 is complete control)) | pest or weed control at 125 g/ha ([4]; Postemergence, visual rating about 10 d after treatment, read-out: Ryegrass, Italian plant response rating (0 to 100 scale)) | pest or weed control at 500 g/ha [4, 14]
CN1CC[C@H](c2cccc(OC(F)(F)F)c2)[C@@H](C(=O)Nc2ccc(F)c(F)c2F)C1=O [Compound 808] | 70% | 0% | 100% | 15% | 0% | 0% |  |  |  |  |  |  |  |  |  | 
Cc1cc([C@H]2CN(C)C(=O)[C@@H]2C(=O)Nc2ccccc2F)cc(C)c1C [Compound 797] | 90% | 0% | 90% | 25% |  | 0% | 40% |  |  |  |  |  |  |  |  | 
O=C1NC[C@H](c2ccc3c(c2)CCO3)[C@H]1C(=O)Nc1ccccc1F [Compound 786] | 0% | 40% | 70% | 0% |  |  | 0% |  |  |  |  |  |  |  |  | 
CSc1ccccc1NC(=O)[C@H]1C(=O)N(C)C[C@@H]1c1ccc(F)cc1 [Compound 1236] |  |  |  |  |  |  |  | 65% | 0% | 100% | 35% | 0% | 50% |  |  | 
Cc1cc(F)cc([C@H]2CN(C)C(=O)[C@@H]2C(=O)Nc2cccc(F)c2C)c1 [Compound 802] | 90% | 0% | 100% | 20% | 40% | 0% |  |  |  |  |  |  |  |  |  | 
CN1C[C@H](c2ccc3c(c2)CCO3)[C@@H](C(=O)Nc2cccc(F)c2F)C1=O [Compound 1324] |  |  |  |  |  |  |  | 75% |  | 65% | 0% |  |  | 0% | 30% | 50%
CN1CC[C@H](c2cccc(OC(F)(F)F)c2)[C@@H](C(=O)Nc2ccccc2C(F)(F)F)C1=O [Compound 806] | 0% | 0% | 75% | 0% | 0% | 0% |  |  |  |  |  |  |  |  |  | 
CCc1cc(CC)cc([C@H]2CN(C)C(=O)[C@@H]2C(=O)Nc2cccc(F)c2F)c1 [Compound 736] | 40% | 0% | 40% | 0% |  |  | 80% |  |  |  |  |  |  |  |  | 
O=C1NC[C@H](c2cccc(C(F)(F)F)c2)C1C(=O)Nc1ccccc1CO (stereo partly shown) [Compound 1244] |  |  |  |  |  |  |  | 20% | 0% | 30% | 0% | 0% | 30% |  |  | 
CN1CC[C@H](c2ccc3c(c2)OC(F)(F)O3)[C@@H](C(=O)Nc2ccccc2C(F)(F)F)C1=O [Compound 811] | 20% | 40% | 40% | 0% | 0% | 0% |  |  |  |  |  |  |  |  |  | 
CN1C[C@H](c2ccc(F)c(C#N)c2)[C@@H](C(=O)Nc2cccc(F)c2F)C1=O [Compound 1255] |  |  |  |  |  |  |  | 65% | 0% | 100% | 0% | 20% |  |  |  | 40%
